# Test results: BindingDB's records for doi:10.1016/s0960-894x(03)00664-4 (Eli Lilly, 2003)
# Target: Acetyl-CoA carboxylase 1 (Rattus norvegicus, UniProt P11497)
# Assay: Inhibitory concentration against rat heart ACC by the carboxylation of acetyl-CoA with [14C]-HCO3- to form [14C]-malonyl CoA; 18-40 uM
row,Compound,IC50 [µM]
1,CCC/C(=N\OCC)C1C(=O)CC(C2CCCSC2)CC1=O (stereo not given) [2-{1-[(E)-Ethoxyimino]-butyl}-3-hydroxy-5-(tetrahydro-thiopyran-3-yl)-cyclohex-2-enone],40
2,CCSC(C)CC1CC(=O)C(/C(CC)=N/OC/C=C/Cl)C(=O)C1 (stereo not given) [clethodim],40
3,CCC/C(=N\OCC)C1C(=O)CC(CC(C)SCC)CC1=O (stereo not given) [2-{1-[(E)-Ethoxyimino]-butyl}-5-(2-ethylsulfanyl-propyl)-3-hydroxy-cyclohex-2-enone],40
4,CC/C(=N\OC/C=C/Cl)C1C(=O)CC(C2CCOCC2)CC1=O (stereo not given) [2-{1-[(E)-(E)-3-Chloro-allyloxyimino]-propyl}-3-hydroxy-5-(tetrahydro-pyran-4-yl)-cyclohex-2-enone],40
5,"CCO/N=C(\CC)C1C(=O)CC(c2c(C)cc(C)cc2C)CC1=O (stereo not given) [2-{1-[(E)-Ethoxyimino]-propyl}-3-hydroxy-5-(2,4,6-trimethyl-phenyl)-cyclohex-2-enone]",40
